Each structure is given as a SMILES string.

The target of this assay is T1, human mGluR2 (Homo sapiens, UniProt Q14416).
T1 construct: expressed in transfected cells
T1 sequence (Q14416 19-872): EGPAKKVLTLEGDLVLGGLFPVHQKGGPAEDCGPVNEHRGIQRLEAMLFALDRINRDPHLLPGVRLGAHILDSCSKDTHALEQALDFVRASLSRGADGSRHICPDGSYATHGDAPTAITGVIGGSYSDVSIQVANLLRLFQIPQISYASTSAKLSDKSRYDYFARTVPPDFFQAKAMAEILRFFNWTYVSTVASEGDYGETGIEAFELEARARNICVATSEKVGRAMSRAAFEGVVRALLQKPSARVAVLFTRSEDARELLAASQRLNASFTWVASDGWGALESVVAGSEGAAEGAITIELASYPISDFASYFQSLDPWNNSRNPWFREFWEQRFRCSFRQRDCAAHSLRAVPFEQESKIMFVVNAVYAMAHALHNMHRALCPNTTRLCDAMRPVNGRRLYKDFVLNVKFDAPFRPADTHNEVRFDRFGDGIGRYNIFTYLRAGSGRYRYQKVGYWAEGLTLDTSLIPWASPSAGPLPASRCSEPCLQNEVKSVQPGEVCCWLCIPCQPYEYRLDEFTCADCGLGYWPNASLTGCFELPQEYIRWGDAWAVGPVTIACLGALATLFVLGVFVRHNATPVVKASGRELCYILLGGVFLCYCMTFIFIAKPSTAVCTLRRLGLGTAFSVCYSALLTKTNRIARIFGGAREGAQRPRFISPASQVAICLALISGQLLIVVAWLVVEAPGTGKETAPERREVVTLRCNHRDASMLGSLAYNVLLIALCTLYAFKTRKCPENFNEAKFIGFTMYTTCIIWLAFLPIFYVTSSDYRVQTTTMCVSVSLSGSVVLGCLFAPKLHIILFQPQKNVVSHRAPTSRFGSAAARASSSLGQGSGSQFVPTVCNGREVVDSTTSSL
Kind of assay: [35S]-GTPγS binding assay of mGluR2 receptor activation (allosteric activator activity). To be noted: membranes from CHO cells stably expressing human mGluR2; in presence of 1 μM glutamate. It is filed as biochemical. On the procedure:
A [^35S]-GTPγS binding assay was used to functionally assay mGluR2 receptor activation. The allosteric activator activity of compounds at the human mGluR2 receptor was measured using a [^35S]-GTPγS binding assay with membranes prepared from CHO cells which stably express the human mGluR2. The assay is based upon the principle that agonists bind to G-protein coupled receptors to stimulate GDP-GTP exchange at the G-protein. Since [^35S]-GTPγS is a non-hydrolysable GTP analog, it can be used to provide an index of GDP-GTP exchange and, thus, receptor activation. The GTPγS binding assay therefore provides a quantitative measure of receptor activation.
Membranes were prepared from CHO cells stably transfected with human mGluR2. Membranes (30 μg protein) were incubated with test compound (3 nM to 300 μM) for 15 minutes at room temperature prior to the addition of 1 μM glutamate, and incubated for 30 min at 30° C. in 500 μl assay buffer (20 mM HEPES, 100 mM NaCl, 10 mM MgCl2), containing 30 μM GDP and 0.1 nM [^35S]-GTPγS (1250 Ci/mmol). Reactions were carried out in triplicate in 2 ml polypropylene 96-well plates. Reactions were terminated by vacuum filtration using a Packard 96-well harvester and Unifilter-96, GF/B filter microplates. The filter plates were washed 4×1.5 ml with ice-cold wash buffer ([…] sodium phosphate buffer, pH 7.4). The filter plates were dried and 35 μl of scintillation fluid (Microscint 20) was added to each well. The amount of radioactivity bound was determined by counting plates on the Packard TopCount. Data was analyzed using GraphPad Prism, and EC50 and Emax values (relative to the maximum glutamate effect) were calculated using non-linear regression.
As for `Cc1cccc2nc(CN3CCC(CCOc4ccc(F)c(F)c4)CC3)n(C)c12` [Example 1.2, 2-{4-[2-(3,4-Difluoro-phenoxy)-ethyl]-piperidin-1-ylmethyl}-1,7-dimethyl-1H-benzoimidazole], the EC50 is 57 nM.
For `Cc1cccc2nc(CN3CCC(c4ccc(F)cc4)CC3)n(C)c12` [Example 1.49, 2-[4-(4-Fluoro-phenyl)-piperidin-1-ylmethyl]-1,7-dimethyl-1H-benzoimidazole] the value was 79.5 nM; for `CCn1c(CN2CCC(c3ccccc3)(c3ccccc3)CC2)nc2ccccc21` [Example 1.54, 2-(4,4-Diphenyl-piperidin-1-ylmethyl)-1-ethyl-1H-benzoimidazole], 1040 nM; for `Cn1c(CN2CCC(O)(c3ccc(Cl)cc3)CC2)nc2ccccc21` [Example 1.75, 4-(4-Chloro-phenyl)-1-(1-methyl-1H-benzoimidazol-2-ylmethyl)-piperidin-4-ol], 8610 nM.
On to `Cn1c(CN2CCN(c3ccc(Cl)c(Cl)c3)CC2)nc2ccccc21` [Example 26.8, 2-[4-(3,4-Dichloro-phenyl)-piperazin-1-ylmethyl]-1-methyl-1H-benzoimidazole], for which the EC50 stood at 187 nM.

Usually EC50 stands for the midpoint of the concentration-response curve.

Source of the values: patent US20090192169A1, “Bicyclic Benzimidazole Compounds and Their Use as Metabotropic Glutamate Receptor Potentiators” (priority 2006, published 2009).
